For data set [1], the target named is T1, IKKα (Homo sapiens, UniProt O15111).
T1 sequence (O15111 1-745): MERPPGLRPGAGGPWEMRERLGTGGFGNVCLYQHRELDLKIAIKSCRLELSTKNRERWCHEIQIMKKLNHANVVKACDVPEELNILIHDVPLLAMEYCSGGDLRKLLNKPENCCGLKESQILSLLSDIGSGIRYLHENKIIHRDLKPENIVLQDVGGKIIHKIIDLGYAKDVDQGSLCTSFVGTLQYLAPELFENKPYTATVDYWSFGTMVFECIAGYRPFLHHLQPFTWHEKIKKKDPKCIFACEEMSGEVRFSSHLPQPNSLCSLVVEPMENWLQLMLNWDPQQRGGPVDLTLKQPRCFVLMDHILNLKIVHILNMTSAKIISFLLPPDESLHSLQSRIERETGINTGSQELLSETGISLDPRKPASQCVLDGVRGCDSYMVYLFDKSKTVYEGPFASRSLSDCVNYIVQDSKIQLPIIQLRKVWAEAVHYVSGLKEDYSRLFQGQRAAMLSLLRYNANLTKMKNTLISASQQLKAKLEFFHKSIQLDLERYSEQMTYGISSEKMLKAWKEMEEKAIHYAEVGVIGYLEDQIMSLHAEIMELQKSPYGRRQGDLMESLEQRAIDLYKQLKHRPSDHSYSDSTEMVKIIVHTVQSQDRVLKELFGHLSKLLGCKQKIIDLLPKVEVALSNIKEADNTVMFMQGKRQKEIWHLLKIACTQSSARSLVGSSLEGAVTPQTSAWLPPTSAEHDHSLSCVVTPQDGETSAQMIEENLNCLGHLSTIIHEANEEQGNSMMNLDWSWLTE
In words: DELFIA kinase assay, IKKα. Type of data set: biochemical. The note with it: DELFIA kinase assay. The text has this:
To examine the pyrrolo[2,3-b]pyridines as an alternative scaffold, we adopted the AIPP core because it had similar dimensions to SU909 (1), with HBD/HBA motifs positioned at the scaffold extremities to interact with both the hinge region and the G-loop wall of IKKα, a rationale we had previously proposed as the basis for imparting selectivity. A preliminary set of AIPP derivatives was designed and synthesised to explore its utility as an IKK-targeting scaffold, whilst incorporating additional functionality through which to introduce selectivity for the IKKα isoform (2–4; Figure 3). This was achieved by initially adopting two different approaches: either appending a hydrophobic moiety to the pyrrolo[2,3-b]pyridine motif as a fused form to afford the tricyclic derivatives 2 and 3, or as a phenyl substituent to introduce flexibility with respect to the central pyrrolo[2,3-b]pyridine moiety in 4. When assessed against IKKα and IKKβ using our in-house DELFIA kinase assay […] The pyrrolo[2,3-b]pyridine was bound to the hinge region in the classical HBA/HBD motif with the GK+3 amide backbone, whilst the aminoindazole projected towards the top of the pocket to interact with the G-loop (Figure 4A). […] In both isoforms, the 2-phenyl moiety protruded away from the hinge towards the exposed solvent area.
(§1) IKKα and IKKβ inhibitory activity were determined using a dissociation-enhanced ligand fluorescent immunoassay (DELFIA) based on the protocol of HTScan™ IKKβ Kinase Assay (Cell Signaling Technology, Danvers, MA, USA) as described in [24].

Data set [2] has as its target T2, IKKβ (Homo sapiens, UniProt O14920).
T2 sequence (O14920 1-756): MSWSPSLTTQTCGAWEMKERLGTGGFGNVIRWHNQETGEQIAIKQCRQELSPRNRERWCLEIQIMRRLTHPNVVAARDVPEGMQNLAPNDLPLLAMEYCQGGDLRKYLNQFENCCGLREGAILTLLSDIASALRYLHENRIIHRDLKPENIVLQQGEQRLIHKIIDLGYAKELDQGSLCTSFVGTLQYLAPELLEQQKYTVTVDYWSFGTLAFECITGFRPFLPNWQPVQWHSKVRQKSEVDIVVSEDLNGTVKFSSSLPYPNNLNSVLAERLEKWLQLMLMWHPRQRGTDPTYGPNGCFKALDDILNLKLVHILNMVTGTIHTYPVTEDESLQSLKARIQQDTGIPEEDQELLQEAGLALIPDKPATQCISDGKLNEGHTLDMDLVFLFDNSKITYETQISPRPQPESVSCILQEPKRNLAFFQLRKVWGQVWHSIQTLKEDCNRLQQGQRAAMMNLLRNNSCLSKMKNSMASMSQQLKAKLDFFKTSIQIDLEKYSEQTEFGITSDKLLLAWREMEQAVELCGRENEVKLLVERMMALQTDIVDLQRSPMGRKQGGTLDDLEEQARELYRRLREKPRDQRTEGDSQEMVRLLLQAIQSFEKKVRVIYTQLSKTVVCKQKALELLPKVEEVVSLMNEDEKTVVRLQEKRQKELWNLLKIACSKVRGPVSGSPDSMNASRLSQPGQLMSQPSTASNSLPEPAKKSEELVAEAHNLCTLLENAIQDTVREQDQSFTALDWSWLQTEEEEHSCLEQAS
In words: DELFIA kinase assay, IKKβ. Type of data set: biochemical. The method, then: as §1

Data set [3] in a line: Turbidimetric solubility. Type of data set: physicochemical. The note with it: pH 7.4, aqueous buffer, kinetic from dmso stock, 0.01 M phosphate-buffered saline pH7.4. Here is the method: Pharmacokinetic studies were contracted to Sygnature Discovery Limited. Turbidimetric Solubility was determined by diluting compound solutions (1 μM, 3 μM, 10 μM, 30 μM, 100 μM) prepared in DMSO into 0.01 M phosphate-buffered saline pH7.4. Turbidimetry was used as the endpoint by measuring absorbance at 620 nm.

In brackets after ≈: the same amount, converted by molar mass. Where two headings read alike, the source gives them in different places.

As to `Cc1ccc(S(=O)(=O)Nc2cccc(-c3cc4c(-c5ccc6[nH]nc(N)c6c5)ccnc4[nH]3)c2)cc1` [Compound 5t], the results for the Ki in data set [1] and in data set [2] (read-out: Ki Values IKKβ) were 10 nM and 1050 nM, respectively.

For `Nc1n[nH]c2ccc(-c3ccnc4[nH]c(-c5cccc(S(=O)(=O)N6CCOCC6)c5)cc34)cc12` [Compound 5aa], the Ki came to 25 nM in data set [1] and 149 nM in data set [2] (read-out: Ki Values IKKβ).

For the molecule `COCCNc1cc(OCc2ccccc2)cc(-c2cc3c(-c4ccc5[nH]nc(N)c5c4)ccnc3[nH]2)c1` [Compound 6c], the solubility in data set [3] was 2 µM (≈ 1.01 µg/mL). The Ki is 26 nM in data set [1] and 1530 nM in data set [2] (Ki Values IKKβ).

Consider `Nc1n[nH]c2ccc(-c3ccnc4[nH]c(-c5cccc(CNc6ccccc6)c5)cc34)cc12` [Compound 5p], for which the Ki was found to be 35 nM in data set [1] and 470 nM in data set [2] (read-out: Ki Values IKKβ).

As for `CCOc1ccccc1-c1cc2c(-c3ccc4[nH]nc(N)c4c3)ccnc2[nH]1` [Compound 5b], the Ki in data set [1] was 8 nM; in data set [2] (read-out: Ki Values IKKβ), 86 nM.

For `COCCNC(=O)c1cccc(-c2cc3c(-c4ccc5[nH]nc(N)c5c4)ccnc3[nH]2)c1` [Compound 5m], the Ki in data set [1] is 15 nM; in data set [2] (read-out: Ki Values IKKβ) it was 107 nM.

As for `Nc1cccc(-c2cc3c(-c4ccc5[nH]nc(N)c5c4)ccnc3[nH]2)c1` [Compound 5c], the Ki turned out to be 5 nM in data set [1] and 28 nM in data set [2] (read-out: Ki Values IKKβ).

As for `Cc1ccc(S(=O)(=O)Nc2ccc(-c3cc4c(-c5ccc6[nH]nc(N)c6c5)ccnc4[nH]3)cc2)cc1` [Compound 5u], the values for the Ki in data set [1] and in data set [2] (read-out: Ki Values IKKβ) were 4 nM and 67 nM, respectively.

As to `Nc1n[nH]c2ccc(-c3ccnc4[nH]c(-c5ccnc(OCCc6ccccc6)c5)cc34)cc12` [Compound 6l], the Ki in data set [1] was determined as 42 nM; in data set [2] (read-out: Ki Values IKKβ) it was 1600 nM.

With `Nc1n[nH]c2ccc(-c3ccnc4[nH]c(-c5cccc(C(=O)O)c5)cc34)cc12` [Compound 5h], the results for the Ki in data set [1] and in data set [2] (read-out: Ki Values IKKβ) were 8 nM and 168 nM, respectively.

With `CC(C)COc1cccc(-c2cc3c(-c4ccc5[nH]nc(N)c5c4)ccnc3[nH]2)c1` [Compound 5o], the results for the Ki in data set [1] and in data set [2] (read-out: Ki Values IKKβ) were 19 nM and 458 nM, respectively.

For `Nc1n[nH]c2ccc(-c3ccnc4[nH]c5ccccc5c34)cc12` [Compound 3], the Ki in data set [1] was determined as 3 nM; in data set [2] (read-out: Ki Values IKKβ), 5 nM.

With `Nc1n[nH]c2ccc(-c3ccnc4[nH]c(-c5cncc(OCc6ccccc6)c5)cc34)cc12` [Compound 6e], in data set [3], the solubility worked out at 6.5 µM (≈ 2.81 µg/mL). The Ki stood at 21 nM in data set [1] and 1550 nM in data set [2] (read-out: Ki Values IKKβ).

As for `Nc1n[nH]c2ccc(-c3ccnc4[nH]c(-c5cc(F)cc(OCc6ccccc6)c5)cc34)cc12` [Compound 6a], the Ki in data set [1] was found to be 59 nM; in data set [2] (read-out: Ki Values IKKβ), 5030 nM.

For `Nc1n[nH]c2ccc(-c3ccnc4[nH]c(-c5ccc(OCc6ccccc6)nc5)cc34)cc12` [Compound 6d], the Ki in data set [1] was 12 nM; in data set [2] (read-out: Ki Values IKKβ), 22 nM.

Turning to `Nc1n[nH]c2ccc(-c3ccnc4[nH]c(-c5ccccc5O)cc34)cc12` [Compound 5a], the Ki in data set [1] came out at 4 nM; in data set [2] (read-out: Ki Values IKKβ), 42 nM.

With `NC(=O)c1cccc(-c2cc3c(-c4ccc5[nH]nc(N)c5c4)ccnc3[nH]2)c1` [Compound 5i], the Ki in data set [1] is 5 nM; in data set [2] (read-out: Ki Values IKKβ), 159 nM.

On to `COCCOCc1cc(OCc2ccccc2)cc(-c2cc3c(-c4ccc5[nH]nc(N)c5c4)ccnc3[nH]2)c1` [Compound 6b], for which, in data set [3], the solubility turned out to be 3.75 µM (≈ 1.95 µg/mL). Further, the Ki is 29 nM in data set [1] and 1210 nM in data set [2] (read-out: Ki Values IKKβ).

Regarding `COc1ccc(COc2cccc(-c3cc4c(-c5ccc6[nH]nc(N)c6c5)ccnc4[nH]3)c2)cc1` [Compound 5z], the Ki in data set [1] was 43 nM; in data set [2] (read-out: Ki Values IKKβ), 166 nM.

Regarding `CS(=O)(=O)c1cccc(-c2cc3c(-c4ccc5[nH]nc(N)c5c4)ccnc3[nH]2)c1` [Compound 5k], the Ki in data set [1] turned out to be 3 nM; in data set [2] (read-out: Ki Values IKKβ) it was 36 nM.

Regarding `Nc1n[nH]c2ccc(-c3ccnc4[nH]c(-c5cccc(O)c5)cc34)cc12` [Compound 5d], the Ki turned out to be 5 nM in data set [1] and 26 nM in data set [2] (read-out: Ki Values IKKβ).

For the molecule `COc1cc(F)cc(-c2cc3c(-c4ccc5[nH]nc(N)c5c4)ccnc3[nH]2)c1` [Compound 5g], the results for the Ki in data set [1] and in data set [2] (read-out: Ki Values IKKβ) were 3 nM and 32 nM, respectively.

As for `Nc1n[nH]c2ccc(-c3ccnc4[nH]c(-c5ccccc5OCc5ccccc5)cc34)cc12` [Compound 5q], the Ki was 57 nM in data set [1] and 1060 nM in data set [2] (read-out: Ki Values IKKβ).

As to `Nc1n[nH]c2ccc(-c3ccnc4[nH]c(-c5cccc(OCCN6CCOCC6)c5)cc34)cc12` [Compound 5y], the Ki was determined as 9 nM in data set [1] and 29 nM in data set [2] (read-out: Ki Values IKKβ).

As to `Nc1n[nH]c2ccc(-c3ccnc4[nH]c(-c5cccc(OCC6CCOCC6)c5)cc34)cc12` [Compound 5x], the Ki in data set [1] worked out at 8 nM; in data set [2] (read-out: Ki Values IKKβ) it was 122 nM.

On to `COc1cccc(-c2cc3c(-c4ccc5[nH]nc(N)c5c4)ccnc3[nH]2)c1` [Compound 5e], for which the Ki in data set [1] turned out to be 5 nM; in data set [2] (read-out: Ki Values IKKβ), 40 nM.

For `CS(=O)(=O)Nc1cccc(-c2cc3c(-c4ccc5[nH]nc(N)c5c4)ccnc3[nH]2)c1` [Compound 5j], the Ki in data set [1] came out at 3 nM; in data set [2] (read-out: Ki Values IKKβ), 109 nM.

With `Nc1n[nH]c2ccc(-c3ccnc4[nH]c(-c5cc(O)cc(F)c5)cc34)cc12` [Compound 5f], the Ki in data set [1] was 4 nM; in data set [2] (read-out: Ki Values IKKβ), 42 nM.

In the case of `Nc1n[nH]c2ccc(-c3ccnc4[nH]c(-c5cccc(OCc6ccccn6)c5)cc34)cc12` [Compound 5w], the Ki in data set [1] stood at 16 nM; in data set [2] (read-out: Ki Values IKKβ) it was 402 nM.

With `Nc1n[nH]c2ccc(-c3ccnc4[nH]c(-c5cccc(CNC6CCCC6)c5)cc34)cc12` [Compound 5n], the figures for the Ki in data set [1] and in data set [2] (read-out: Ki Values IKKβ) were 10 nM and 191 nM, respectively.

For `Nc1n[nH]c2ccc(-c3ccnc4[nH]c(-c5ccc(OCc6ccccc6)cc5)cc34)cc12` [Compound 5s], the Ki in data set [1] came out at 16 nM; in data set [2] (read-out: Ki Values IKKβ), 189 nM.

As for `COCCC(=O)Nc1cccc(-c2cc3c(-c4ccc5[nH]nc(N)c5c4)ccnc3[nH]2)c1` [Compound 5l], the Ki was found to be 6 nM in data set [1] and 25 nM in data set [2] (read-out: Ki Values IKKβ).

Turning to `CN1CCN(C(=O)c2cccc(-c3cc4c(-c5ccc6[nH]nc(N)c6c5)ccnc4[nH]3)c2)CC1` [Compound 5v], the figures for the Ki in data set [1] and in data set [2] (read-out: Ki Values IKKβ) were 24 nM and 215 nM, respectively.

On to `Nc1n[nH]c2ccc(-c3ccnc4[nH]c(-c5cc(F)nc(SCc6ccccc6)c5)cc34)cc12` [Compound 6i], for which the Ki in data set [1] is 127 nM; in data set [2] (read-out: Ki Values IKKβ) it was 3000 nM.

`Nc1n[nH]c2ccc(-c3ccnc4[nH]c5c(c34)CCCC5)cc12` [Compound 2, 5-(6,7,8,9-Tetrahydro-5H-pyrido[2,3-b]indol-4-yl)-1H-indazol-3-amine]: the Ki in data set [1] is 2 nM; in data set [2] (read-out: Ki Values IKKβ), 77 nM.

The record behind these values is paper PMC11314561, “Design and Synthesis of Novel Aminoindazole-pyrrolo[2,3-b]pyridine Inhibitors of IKKα That Selectively Perturb Cellular Non-Canonical NF-κB Signalling” (Molecules, 2024).
